# According to ChEMBL document CHEMBL4346758 (2019):
# Active and inactive are the calls of the source. The calls are words filed in the database; no cut-off is given here.
# Legend:
# Hemagglutinin = Hemagglutinin (Influenza A virus, UniProt B4URE7); experiment: Binding affinity to hemagglutinin by SPR assay
# MDCK = experiment: Cytotoxicity against MDCK cells assessed as cell viability; format: cell-based, Canis lupus familiaris; conditions: dog
# Influenza A virus [1] = experiment: Inhibition of hemagglutinin 5 in Influenza A virus assessed as inhibition of chicken erythrocytes aggregation
# [2] = Binding affinity to HA2 subunit by SPR assay; design: species or system Influenza A virus
# Influenza A virus [3] = experiment: microbe, parasite or virus in culture; conditions: A/Puerto Rico/8/1934(H1N1), A549
# H5N1 subtype [4] = experiment: Antiviral activity against Influenza A virus (A/Thailand/Kan353/2004(H5N1)) infected in MDCK cells assessed as inhibition of viral entry; format: functional, organism-based
# [5] = test system: Influenza A virus (A/Thailand/Kan353/2004(H5N1)); experiment: Inhibition of Influenza A virus (A/Thailand/Kan353/2004(H5N1)) neuraminidase N1 using fluorogenic 2'-(4-Methylumbelliferyl)-alpha-D-N-acetylneuraminic acid sodium salt hydrate as substrate measured after 30 mins by microplate reader analysis
# H5N1 subtype [6] = format: functional, organism-based; conditions: 5 uM
# [7] = Cytotoxicity against human A549 cells assessed as reduction in cell viability by MTT assay; format: cell-based
# Influenza A virus [8] = format: functional, organism-based; conditions: H5N1
# [9] = test system: Vesicular stomatitis virus; experiment: Antiviral activity against VSV-G enveloped pseudovirus infected in MDCK cells assessed as inhibition of viral entry; format: functional, organism-based
# Chain of Hemagglutinin (B4URE7 whole entry): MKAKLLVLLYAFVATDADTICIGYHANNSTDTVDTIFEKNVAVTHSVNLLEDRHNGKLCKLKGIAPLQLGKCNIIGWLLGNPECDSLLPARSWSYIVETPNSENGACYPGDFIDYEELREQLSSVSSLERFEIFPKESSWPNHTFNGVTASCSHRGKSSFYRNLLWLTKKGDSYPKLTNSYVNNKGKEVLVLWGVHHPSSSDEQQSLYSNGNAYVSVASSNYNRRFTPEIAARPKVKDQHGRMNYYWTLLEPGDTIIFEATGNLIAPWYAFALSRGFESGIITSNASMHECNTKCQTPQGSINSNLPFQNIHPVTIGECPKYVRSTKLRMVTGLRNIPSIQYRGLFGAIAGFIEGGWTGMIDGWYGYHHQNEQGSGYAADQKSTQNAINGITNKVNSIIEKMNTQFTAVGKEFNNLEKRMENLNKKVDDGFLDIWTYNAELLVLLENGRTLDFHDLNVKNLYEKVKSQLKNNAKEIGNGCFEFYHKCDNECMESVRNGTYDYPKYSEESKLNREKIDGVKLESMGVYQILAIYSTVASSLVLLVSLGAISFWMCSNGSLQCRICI
smiles,measurement,setting,value
C[C@H]1[C@H](C)CC[C@]2(C(=O)NCCN3CCOCC3)CC[C@]3(C)C(=CC[C@@H]4[C@@]5(C)CC[C@H](O[C@@H]6O[C@H](CO)[C@@H](O[C@@H]7O[C@@H](C)[C@H](O)[C@@H](O)[C@H]7O)[C@H](O)[C@H]6O[C@@H]6O[C@@H](C)[C@H](O)[C@@H](O)[C@H]6O)C(C)(C)[C@@H]5CC[C@]43C)[C@H]12,Kd,Hemagglutinin,0.0161 µM
same,Activity,MDCK,Non-Toxic
same,inhibition,Influenza A virus [1],inactive
same,Kd,[2],0.00017 µM
same,IC50,Influenza A virus [3],18.2 µM
same,IC50,H5N1 subtype [4],3.88 µM
same,inhibition,[5],inactive
same,inhibition,H5N1 subtype [6],Active
same,CC50,[7],> 200 µM
same,inhibition,Influenza A virus [8],Dose-dependent effect
same,inhibition,[9],inactive
CCOC(=O)C1=C[C@@H](OC(CC)CC)[C@H](NC(C)=O)[C@@H](N)C1 [OSELTAMIVIR],IC50,Influenza A virus [3],4.61 µM
same,CC50,[7],> 200 µM
C[C@H]1[C@H](C)CC[C@]2(C(=O)NCCN3CCCCC3)CC[C@]3(C)C(=CC[C@@H]4[C@@]5(C)CC[C@H](O[C@@H]6O[C@H](CO)[C@@H](O[C@@H]7O[C@@H](C)[C@H](O)[C@@H](O)[C@H]7O)[C@H](O)[C@H]6O[C@@H]6O[C@@H](C)[C@H](O)[C@@H](O)[C@H]6O)C(C)(C)[C@@H]5CC[C@]43C)[C@H]12,IC50,Influenza A virus [3],21.3 µM
same,inhibition,[5],inactive
same,CC50,[7],> 200 µM
C[C@H]1[C@H](C)CC[C@]2(C(=O)O)CC[C@]3(C)C(=CC[C@@H]4[C@@]5(C)CC[C@H](O[C@@H]6O[C@H](CO)[C@@H](O[C@@H]7O[C@@H](C)[C@H](O)[C@@H](O)[C@H]7O)[C@H](O)[C@H]6O[C@@H]6O[C@@H](C)[C@H](O)[C@@H](O)[C@H]6O)C(C)(C)[C@@H]5CC[C@]43C)[C@H]12,IC50,Influenza A virus [3],38.1 µM
same,CC50,[7],66.6 µM
